Activity calls are given as the source filed them.
Assays:
HEK293 = test: EBV LMP1 TES2 canonical NF-kB signalling blockers – cell-based, HEK293, luciferase, cherry-pick, dose response (AID 588343); type: functional; settings: Homo sapiens
[1] = target: SWI/SNF-related matrix-associated actin-dependent regulator of chromatin subfamily A member 2 (Homo sapiens, UniProt P51531); test: Luminescence-based cell-based high throughput dose response assay to identify activators of the function of SWI/SNF related, matrix associated, actin dependent regulator of chromatin, subfamily a, member 2 (SMARCA2, BRM).; type: functional
[2] = Counterscreen for activators of the function of SWI/SNF related, matrix associated, actin dependent regulator of chromatin, subfamily a, member 2 (SMARCA2, BRM): Luminescence-based cell-based high throughput dose response assay to identify non-selective compounds using the VP16 reporter assay.; type: functional
[3] = target: T1, Fructose-bisphosphate aldolase (Mycobacterium tuberculosis, UniProt P9WQA3); test: Fluorescence-based biochemical high throughput dose response assay for inhibitors of the fructose-bisphosphate aldolase (FBA) of M. tuberculosis.; type: functional
T1 sequence (P9WQA3 whole entry): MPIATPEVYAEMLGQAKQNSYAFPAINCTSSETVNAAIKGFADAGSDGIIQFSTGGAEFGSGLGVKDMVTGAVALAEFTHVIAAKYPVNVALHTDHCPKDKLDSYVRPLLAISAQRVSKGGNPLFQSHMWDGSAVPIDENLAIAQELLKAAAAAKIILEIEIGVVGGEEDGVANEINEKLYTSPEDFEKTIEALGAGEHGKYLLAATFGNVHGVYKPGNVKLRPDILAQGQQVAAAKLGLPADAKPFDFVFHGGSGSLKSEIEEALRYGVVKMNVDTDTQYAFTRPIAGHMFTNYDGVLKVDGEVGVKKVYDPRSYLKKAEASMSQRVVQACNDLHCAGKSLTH

[4] = Trypanosoma cruzi growth suppression in host cells – NIH3T3 host cells, beta-gal luminescence, confirmation (AID 2044); type: functional, cell-based;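 note: intracellular parasites grown in NIH/3T3 mouse fibroblasts as host cells; luminescent beta-galactosidase reporter signal from transgenic T. cruzi replicating inside host cells; inhibitors lower the luminescence signal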
[5] = NIH3T3 cell viability loss – ATP luminescence, mouse fibroblasts, counter-screen, dose response (AID 2010); type: functional, cell-based;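 note: cells exposed to compound for about 90 hours before reading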
Caspase-3 = target: T2, Caspase-3 (Homo sapiens, UniProt P42574); type: functional;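 note: Dose-response selectivity test against caspase-3 for candidate inhibitors of sentrin-specific proteases (SENPs)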
T2 sequence (P42574 whole entry): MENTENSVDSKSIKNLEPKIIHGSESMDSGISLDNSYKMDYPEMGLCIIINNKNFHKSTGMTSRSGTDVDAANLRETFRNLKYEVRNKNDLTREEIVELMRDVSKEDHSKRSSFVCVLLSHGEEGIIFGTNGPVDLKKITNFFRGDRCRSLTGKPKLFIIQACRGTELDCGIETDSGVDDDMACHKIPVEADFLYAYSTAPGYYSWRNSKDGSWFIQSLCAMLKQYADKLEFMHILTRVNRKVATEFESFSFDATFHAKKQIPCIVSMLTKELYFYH

[6] = target: T3, Sentrin-specific protease 7 (Homo sapiens, UniProt Q9BQF6); type: functional;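 note: Luminescence-based dose-response confirmation of ultra-high-throughput screening hits, measuring inhibition of SENP7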
T3 sequence (Q9BQF6 whole entry): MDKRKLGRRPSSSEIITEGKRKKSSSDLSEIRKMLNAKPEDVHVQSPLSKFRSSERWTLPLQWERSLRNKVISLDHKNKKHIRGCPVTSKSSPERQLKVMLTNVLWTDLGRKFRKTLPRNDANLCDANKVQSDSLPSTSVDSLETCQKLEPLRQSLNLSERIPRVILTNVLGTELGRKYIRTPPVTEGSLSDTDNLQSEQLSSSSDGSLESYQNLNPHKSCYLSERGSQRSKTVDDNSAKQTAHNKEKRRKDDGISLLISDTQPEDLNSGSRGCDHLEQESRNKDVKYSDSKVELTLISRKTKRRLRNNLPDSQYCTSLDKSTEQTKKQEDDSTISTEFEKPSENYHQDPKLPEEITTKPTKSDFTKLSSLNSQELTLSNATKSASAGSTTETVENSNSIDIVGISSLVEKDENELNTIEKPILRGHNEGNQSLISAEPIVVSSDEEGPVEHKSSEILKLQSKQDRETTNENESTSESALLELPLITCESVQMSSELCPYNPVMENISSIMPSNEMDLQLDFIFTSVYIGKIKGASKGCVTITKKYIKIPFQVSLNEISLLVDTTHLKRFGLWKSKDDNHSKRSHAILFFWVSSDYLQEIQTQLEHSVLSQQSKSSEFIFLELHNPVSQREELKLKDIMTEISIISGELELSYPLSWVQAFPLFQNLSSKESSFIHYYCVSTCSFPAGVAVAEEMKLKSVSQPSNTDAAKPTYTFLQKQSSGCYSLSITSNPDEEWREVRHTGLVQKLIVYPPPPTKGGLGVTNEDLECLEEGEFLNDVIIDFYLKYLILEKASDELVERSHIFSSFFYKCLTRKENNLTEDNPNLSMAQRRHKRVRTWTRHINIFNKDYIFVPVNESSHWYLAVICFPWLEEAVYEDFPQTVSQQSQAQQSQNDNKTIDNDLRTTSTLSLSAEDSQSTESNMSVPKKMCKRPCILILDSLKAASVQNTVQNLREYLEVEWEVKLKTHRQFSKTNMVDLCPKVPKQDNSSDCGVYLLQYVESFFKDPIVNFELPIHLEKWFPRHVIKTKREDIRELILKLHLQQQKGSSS

[7] = target: T4, Sentrin-specific protease 6 (Homo sapiens, UniProt Q9GZR1); type: functional;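 note: Luminescence-based dose-response confirmatory assay of SENP6 inhibition, following up an ultra-high-throughput screen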
T4 sequence (Q9GZR1 whole entry): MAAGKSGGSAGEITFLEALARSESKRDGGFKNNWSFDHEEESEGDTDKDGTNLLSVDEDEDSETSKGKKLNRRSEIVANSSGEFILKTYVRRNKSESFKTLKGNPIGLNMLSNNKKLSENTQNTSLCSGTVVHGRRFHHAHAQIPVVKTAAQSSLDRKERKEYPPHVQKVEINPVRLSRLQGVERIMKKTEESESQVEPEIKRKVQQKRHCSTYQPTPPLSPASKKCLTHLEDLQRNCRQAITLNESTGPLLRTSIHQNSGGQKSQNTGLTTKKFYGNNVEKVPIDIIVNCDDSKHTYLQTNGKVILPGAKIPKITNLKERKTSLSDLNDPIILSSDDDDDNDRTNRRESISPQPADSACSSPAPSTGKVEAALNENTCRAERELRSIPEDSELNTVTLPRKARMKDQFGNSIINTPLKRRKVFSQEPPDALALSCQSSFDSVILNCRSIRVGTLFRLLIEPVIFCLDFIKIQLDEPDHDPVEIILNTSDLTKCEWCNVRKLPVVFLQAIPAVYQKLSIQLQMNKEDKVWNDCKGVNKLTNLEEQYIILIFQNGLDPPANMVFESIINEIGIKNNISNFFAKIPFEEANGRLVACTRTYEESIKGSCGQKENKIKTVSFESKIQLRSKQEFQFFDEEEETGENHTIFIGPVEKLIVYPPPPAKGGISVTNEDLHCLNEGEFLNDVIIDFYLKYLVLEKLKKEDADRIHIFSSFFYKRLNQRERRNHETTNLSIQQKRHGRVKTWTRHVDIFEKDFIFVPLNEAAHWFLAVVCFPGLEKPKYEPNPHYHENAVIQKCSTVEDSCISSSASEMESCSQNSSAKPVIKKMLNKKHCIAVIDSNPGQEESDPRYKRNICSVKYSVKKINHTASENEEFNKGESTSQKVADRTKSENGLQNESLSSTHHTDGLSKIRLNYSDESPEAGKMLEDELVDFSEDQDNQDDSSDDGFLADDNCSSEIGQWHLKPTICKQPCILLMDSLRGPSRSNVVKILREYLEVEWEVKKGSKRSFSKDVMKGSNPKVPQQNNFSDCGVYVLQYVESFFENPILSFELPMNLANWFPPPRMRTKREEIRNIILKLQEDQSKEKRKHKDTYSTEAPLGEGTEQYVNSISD

[8] = target: T5, Sentrin-specific protease 8 (Homo sapiens, UniProt Q96LD8); type: functional;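 note: luminescence read-out of SENP8 inhibition, dose-response confirmation following an ultra-high-throughput screen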
T5 sequence (Q96LD8 whole entry): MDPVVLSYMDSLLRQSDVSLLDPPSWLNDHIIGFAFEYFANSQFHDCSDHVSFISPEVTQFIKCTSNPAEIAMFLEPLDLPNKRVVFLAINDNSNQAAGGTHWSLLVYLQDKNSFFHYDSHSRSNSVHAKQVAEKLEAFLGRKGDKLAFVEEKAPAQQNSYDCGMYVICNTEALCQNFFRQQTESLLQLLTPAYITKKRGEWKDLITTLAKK

[9] = A549 cell cytotoxicity, dose response, cytotoxicity control, plate reader, cherry-pick, antagonist series (AID 743412); type: functional, cell-based
[10] = blockers of bursicon-stimulated LGR2 cAMP reporter – cell-based, HEK293, CRE-luciferase reporter, cherry pick, set 2, dose response (AID 743343); type: functional;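 note: transfected cells were stimulated with diluted bursicon conditioned medium after compound addition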
[11] = blockade of melanocortin 4 receptor signaling – cell-based, plate reader, cherry pick, counter-screen for LGR2 antagonist project, dose response (AID 743444); type: functional;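 note: transfected HEK 293 cells stimulated with alpha-MSH peptide; potency of inhibitors of the alpha-MSH evoked signal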
[12] = luciferase reporter signal suppression in cells – H4 neuroglioma cells, luminescence, dose response (AID 1990); type: functional, cell-based
BJ [13] = test: BJ-TERT fibroblast viability loss – cell-based, RAS-independent, luminescence, dose response (AID 1933); type: functional; settings: Homo sapiens
[14] = Luminescence Cell-Based Dose Response HTS to Identify Inhibitors of 5'UTR Stem-Loop Driven Prion Protein mRNA Translation in H4 Neuroglioblastoma Cells. [Related pubchem assays: 1827 (Project Summary), 1813 (Primary HTS)]; type: functional
BJ [15] = test: cells; type: functional, cell-based; settings: Homo sapiens
BJ [16] = test: BJ-TERT-LT-ST fibroblast viability loss – cell-based, RAS-independent, luminescence, dose response (AID 1935); type: functional; settings: Homo sapiens;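 note: BJ fibroblasts immortalized with TERT plus LT and ST oncogenes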
[17] = DRD fibroblast viability loss – cell-based, non-viral oncogenic, luminescence, dose response (AID 1934); type: functional; settings: Homo sapiens
[18] = HEK-293T viability loss after treatment – luminescence, T-cell screen hits, cytotoxicity control for TCR NF-kB inhibitor project, dose response (AID 489026); type: functional, cell-based;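 note: cells exposed to compound about 14 hours before the viability readout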
Vero = test: cells; type: functional; settings: Chlorocebus sabaeus
[19] = target: Glucose-6-phosphate 1-dehydrogenase (Homo sapiens, UniProt P11413); test: inhibition of Homo sapiens G6PD, dose series – biochemical, fluorescence, selectivity assay for P. falciparum G6PD inhibitor project, dose response (AID 504792); type: functional
[20] = target: T6, Rac GTPase-activating protein 1 (Homo sapiens, UniProt Q9H0H5); test: blockers of MgcRacGAP-driven Rac1 GTP hydrolysis – biochemical, ADP Hunter fluorescence, primary and confirmatory, confirmation (AID 624330); type: functional
T6 sequence (Q9H0H5 whole entry): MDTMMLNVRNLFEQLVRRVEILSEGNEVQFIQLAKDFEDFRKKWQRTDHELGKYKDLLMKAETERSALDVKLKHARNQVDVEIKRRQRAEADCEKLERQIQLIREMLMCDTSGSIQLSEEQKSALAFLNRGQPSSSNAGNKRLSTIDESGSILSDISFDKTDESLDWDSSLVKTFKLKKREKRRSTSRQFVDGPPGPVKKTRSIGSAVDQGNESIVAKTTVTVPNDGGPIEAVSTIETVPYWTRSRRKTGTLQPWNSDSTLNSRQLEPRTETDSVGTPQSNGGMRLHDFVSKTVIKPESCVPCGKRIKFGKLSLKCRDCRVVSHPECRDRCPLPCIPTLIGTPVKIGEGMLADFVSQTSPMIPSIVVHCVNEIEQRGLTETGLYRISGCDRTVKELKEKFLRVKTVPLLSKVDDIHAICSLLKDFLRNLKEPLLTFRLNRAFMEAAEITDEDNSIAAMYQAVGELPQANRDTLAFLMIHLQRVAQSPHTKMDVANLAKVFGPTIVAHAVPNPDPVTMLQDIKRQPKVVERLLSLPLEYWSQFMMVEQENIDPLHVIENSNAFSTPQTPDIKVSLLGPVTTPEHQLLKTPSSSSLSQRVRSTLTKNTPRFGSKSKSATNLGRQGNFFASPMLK

[21] = viability of uninfected HEp-2 cells – cell-based, HTS, cytotoxicity control for RSV inhibitor project, dose response (AID 2410); type: functional; settings: human respiratory syncytial virus
[22] = microbe, parasite or virus in culture; type: functional; settings: Mycobacterium tuberculosis

Sequence of SWI/SNF-related matrix-associated actin-dependent regulator of chromatin subfamily A member 2 (P51531 whole entry): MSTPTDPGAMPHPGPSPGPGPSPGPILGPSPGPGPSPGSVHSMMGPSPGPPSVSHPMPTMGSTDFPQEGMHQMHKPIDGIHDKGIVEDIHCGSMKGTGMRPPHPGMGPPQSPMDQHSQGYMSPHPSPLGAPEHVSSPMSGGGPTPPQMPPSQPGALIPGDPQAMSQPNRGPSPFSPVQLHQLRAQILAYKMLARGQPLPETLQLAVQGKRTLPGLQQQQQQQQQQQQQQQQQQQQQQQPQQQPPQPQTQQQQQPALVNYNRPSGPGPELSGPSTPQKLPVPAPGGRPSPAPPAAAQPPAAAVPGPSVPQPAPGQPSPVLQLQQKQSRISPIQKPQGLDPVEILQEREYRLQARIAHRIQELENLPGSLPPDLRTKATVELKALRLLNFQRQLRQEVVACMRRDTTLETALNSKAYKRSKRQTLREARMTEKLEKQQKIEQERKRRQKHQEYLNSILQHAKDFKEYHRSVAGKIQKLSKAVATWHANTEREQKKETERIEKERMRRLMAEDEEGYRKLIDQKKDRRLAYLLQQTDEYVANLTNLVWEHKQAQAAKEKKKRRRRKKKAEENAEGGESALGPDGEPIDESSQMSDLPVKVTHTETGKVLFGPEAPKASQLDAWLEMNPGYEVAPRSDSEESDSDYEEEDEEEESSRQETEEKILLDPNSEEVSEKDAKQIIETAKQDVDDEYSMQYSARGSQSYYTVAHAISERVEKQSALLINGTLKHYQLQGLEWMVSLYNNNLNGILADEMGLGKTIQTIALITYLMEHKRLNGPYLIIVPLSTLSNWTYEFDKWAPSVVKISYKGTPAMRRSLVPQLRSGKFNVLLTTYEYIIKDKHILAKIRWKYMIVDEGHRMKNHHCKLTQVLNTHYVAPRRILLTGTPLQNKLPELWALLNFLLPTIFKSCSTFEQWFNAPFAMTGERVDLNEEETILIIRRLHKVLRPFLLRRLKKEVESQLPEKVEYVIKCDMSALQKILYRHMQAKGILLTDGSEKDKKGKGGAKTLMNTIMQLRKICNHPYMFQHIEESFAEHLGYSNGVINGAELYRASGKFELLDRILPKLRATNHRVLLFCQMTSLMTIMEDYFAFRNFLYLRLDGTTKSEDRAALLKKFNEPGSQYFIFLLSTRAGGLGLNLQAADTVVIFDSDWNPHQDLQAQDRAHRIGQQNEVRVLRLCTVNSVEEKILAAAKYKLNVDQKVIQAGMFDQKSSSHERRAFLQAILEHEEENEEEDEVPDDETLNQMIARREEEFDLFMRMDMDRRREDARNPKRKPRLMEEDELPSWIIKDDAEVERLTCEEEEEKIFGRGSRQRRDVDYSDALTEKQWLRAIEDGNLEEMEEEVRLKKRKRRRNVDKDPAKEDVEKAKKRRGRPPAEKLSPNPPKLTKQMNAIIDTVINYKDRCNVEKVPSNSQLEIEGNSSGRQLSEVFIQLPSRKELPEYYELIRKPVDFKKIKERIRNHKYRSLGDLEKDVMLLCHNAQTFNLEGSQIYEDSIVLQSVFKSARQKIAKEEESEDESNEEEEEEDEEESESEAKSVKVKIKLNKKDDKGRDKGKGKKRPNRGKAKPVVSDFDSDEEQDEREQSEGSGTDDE
Sequence of Glucose-6-phosphate 1-dehydrogenase (P11413 whole entry): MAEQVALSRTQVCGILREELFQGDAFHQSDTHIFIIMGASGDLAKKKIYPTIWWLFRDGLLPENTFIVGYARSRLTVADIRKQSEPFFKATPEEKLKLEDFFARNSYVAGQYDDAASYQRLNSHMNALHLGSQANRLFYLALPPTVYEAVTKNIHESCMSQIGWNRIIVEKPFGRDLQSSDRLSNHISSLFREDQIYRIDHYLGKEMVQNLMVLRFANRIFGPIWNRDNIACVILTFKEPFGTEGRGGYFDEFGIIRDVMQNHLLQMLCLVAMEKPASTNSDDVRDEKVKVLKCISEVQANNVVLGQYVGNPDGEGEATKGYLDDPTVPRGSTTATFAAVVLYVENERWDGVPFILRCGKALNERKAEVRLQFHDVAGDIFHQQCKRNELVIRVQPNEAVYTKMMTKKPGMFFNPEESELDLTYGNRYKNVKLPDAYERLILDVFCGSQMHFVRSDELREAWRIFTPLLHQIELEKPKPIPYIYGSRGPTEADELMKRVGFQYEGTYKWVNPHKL

C=CCn1c(C)c(C(C)=O)c(N2CCN(C(c3ccccc3)c3ccccc3)CC2)nc1=S
AC50 (HEK293): 63.8 µM (active)

COc1cc(OC)cc(-c2nc3ccccc3s2)c1
EC50 [1]: > 91.1 µM (inactive) | EC50 [2]: > 91.1 µM (inactive)

COc1ccc2nc3c(O)n(Cc4ccncc4)cnc-3c2c1
IC50 [3]: 0.97 µM (active)

O=C(Oc1c(CN2CCOCC2)cc(Cl)c2cccnc12)c1ccccc1F
EC50 [4]: 1.65 µM (active) | EC50 [5]: 8.05 µM (active) | EC50 [1]: > 91.2 µM (inactive) | EC50 [2]: > 91.2 µM (inactive)

COC(=O)/C=C/C(=O)Nc1cccc(C(F)(F)F)c1
AC50 (HEK293): 11.1 µM (active)

O=C(Nc1ccccc1)N1CC=C(c2ccc(F)cc2)CC1
IC50 (Caspase-3): 34.3 µM (active) | IC50 [6]: 14.9 µM (active) | IC50 [7]: 54.5 µM (active) | IC50 [8]: 86.8 µM (active)

COc1ccc(NC(=O)c2ccc(-c3ccccc3Cl)o2)cc1
IC50 (Caspase-3): 16.2 µM (active) | IC50 [6]: 4.54 µM (active) | IC50 [7]: 4.21 µM (active) | IC50 [8]: > 100 µM (inactive)

Cc1ccc(C(=O)Nc2ccc3c(c2)OCCO3)cc1
AC50 (HEK293): 2.05 µM (active) | AC50 [9]: > 52 µM (inactive) | AC50 [10]: 2.67 µM (active) | AC50 [11]: 4.05 µM (active)

O=C(CNC(=O)c1ccco1)N=Nc1c(O)n(CCc2ccccc2)c2ccccc12
EC50 [12]: 12.2 µM (active) | EC50 (BJ [13]): 3.21 µM (active) | EC50 [14]: > 120 µM (not active) | EC50 (BJ [15]): 17.7 µM (active) | EC50 (BJ [16]): 1.45 µM (active) | EC50 [17]: 2.05 µM (active) | IC50 [18]: > 80 µM (inactive) | CC50 (Vero): 2.46 µM (active)

COc1cc(N)c2ncccc2c1OC
IC50 [19]: > 80 µM (inactive) | IC50 [20]: 56.3 µM (active)

O=C1C(=O)N(c2ccccc2)C(c2ccccc2)C1c1ccccc1 (stereo unspecified)
IC50 [3]: > 9.99 µM (inactive)

O=C1NC(=O)/C(=C/c2ccc(-c3cccc([N+](=O)[O-])c3)o2)S1
CC50 [21]: 1.93 µM (active) | CC50 [22]: > 40 µM (active) | IC50 (Caspase-3): 13.6 µM (active) | IC50 [6]: 50.7 µM (active) | IC50 [7]: 17 µM (active) | IC50 [8]: 55.7 µM (active)

CC/N=c1\sc(C(=O)OC)cc(=O)n1CC
EC50 [1]: > 91.2 µM (inactive) | EC50 [2]: > 91.2 µM (inactive)

COc1cc(C(=O)N/N=C/c2cccc(Oc3ccccc3)c2)ccc1O
CC50 (Vero): > 25 µM (active)
